In US10292992B2, “Selective high-affinity polydentate ligands and methods of making such” (LAWRENCE LIVERMORE NATIONAL SECURITY, LLC, priority 2008, dated 2019):

Experiments:
HLA-DR10 protein = assay: Surface plasmon resonance binding of SHALs to isolated HLA-DR10 protein; design: species or system human
From the text: In certain embodiments, the binding affinities of the best SHALs can be estimated by mass spectrometry of the SHAL-target complexes, followed by a more accurate surface plasmon resonance (SPR) spectroscopy (Shuck (1997) Annu Rev Biophys Biomol Struct., 26: 541-566; Van Regenmortal (2001) Cell Mol Life Sci., 58: 794-800) measurement of the SHAL-target binding affinity using for example, the IASYS Plus or BiaCore instruments. In order to perform the SPR measurement, biotin can be added to the linker through a third functional group (as described above) and the SHAL can be bound to commercially available streptavidin coated chips. […] Experiments can be performed to test the selectivity of SHAL binding to targets in the presence of molecules related to the targets. Thus, for example, where the SHAL is directed to HLA-DR10, the SHAL can be evaluated for its ability to bind target molecules in the presence of Raji cell surface proteins extracted and separated by affinity chromatography. After treating the gel with the biotinylated SHAL and rinsing out excess unbound SHAL, the location of the bound SHAL can be detected by staining with Rhodamine tagged streptavidin.
Protein binding experiments were conducted using surface plasma resonance on a Biacore 3000 (Biacore, Piscataway, N.J.) at 25° C. A research grade streptavidin immobilized chip (SA chip, Biacore) was preconditioned and normalized according to the manufacturers instructions. Biotin labeled SHALs were dissolved in DMSO and diluted in 1.05×PBS (Biacore) to a final concentration of 1×PBS pH 7.4, 5% DMSO, to match the running buffer. These SHALs were injected over the flow cell to yield a surface density of 500-1000RU (response units). Biotin (50 μM E-Z Link Amine-PEO2-Biotin, Pierce) was injected over all cells for 1 minute at 20 μl/min as a block to reduce non-specific binding. One flow cell was used as a reference cell and a different SHAL was immobilized on each of the three other cells.
Experiments measuring the binding of HLA-DR10 to the SHALs were carried out at a flow rate of 30 μl/minute in PBS pH7.4 running buffer using all 4 flow cells. HLA-DR10 isolated from Raji cells (Rose et al. (1996) Cancer Immunol Immunother 43:26-30) was diluted in running buffer to a final concentration ranging from […] and a series of concentrations were run randomly in triplicate. Protein was injected for 3 minutes, allowed to dissociate for 5 minutes followed by regeneration of the surface using a 1 minute injection of 0.1% sodium dodecylsulfate (SDS) followed by a washing step with a 2 minute injection of running buffer. The data, which were double referenced by subtracting the blank reference surface and an average of 5 blank injections, were processed using the program SCRUBBER (University of Utah).
Using homology modeling, HLA-DR amino acid residues critical for Lym-1 binding were mapped on a 3-D model of the HLA-DR10ß subunit (Balhorn et al, (2007) Clin. Cancer Res., 13(Suppl. 18): S5621-S5628). Cavities within the Lym-1 epitopic surface of the protein were identified using SPHGEN (Kuntz et al. (1982) J. Mol Biol. 161: 269-288; Desjarlais et al. (1988) J. Med. Chem., 31: 722-729). After computational ligand docking for each of the cavities, a combination of NMR spectroscopy, surface plasmon resonance (BIAcore 3000; Biacore, Piscataway, N.J.) and competitive binding experiments were used to confirm ligand binding to HLA-DR10 protein. […]

[1] = test system: Jurkat's cells (cells lacking HLA-DR10); assay: 3-D confocal microscopy, Jurkat's cells; assay type: cell-based, human; details: biotinylated reagent, 1 hr
Description: SHAL binding and internalization by Raji and Jurkat's cells was assessed using the method described previously by O'Donnell et al. (O'Donnell et al. (1998) Prostate 37:91-97). Experiments were conducted comparing the binding of (DvLPBaPPP)2LLDo (the parent SHAL), its hexa-arginine analog (DvLPBaPPP)2LArg6AcLLDo, and chimeric Lym-1 (chLym-1) to Raji cells. All steps were performed at 20° C., unless indicated.
Four million Raji cells (>92% viability) in log phase growth were pelleted at 300×g, washed, and blocked for 30 min in 1 ml of 1% fraction V BSA in PBS, with constant rotation. Cells were then incubated 1 hr, at 1 million per 250 μl, with either 1% BSA in PBS or a biotinylated primary reagent: 10 nM chLym-1, 10 μM parent SHAL, or 10 μM hexa-arginine SHAL. After four washes (two in 1% BSA in PBS, two in PBS), 50 μl of the cell suspensions was applied to freshly poly-L-Lysine coated slides, and cells were allowed to adhere for 10 min in a humid chamber. Fixation and permeabilization were performed at −20° C. by using a 4 min exposure to methanol. Jurkat's cells were treated in the same manner as a control.
Slides were then washed twice in PBS and blocked in 10% fetaplex serum (Gemini Bioproducts, West Sacramento, Calif.) in PBS for 15 min and washed once in PBS. […]

Kd (HLA-DR10 protein; biotinylated versions of the SHALs immobilized on streptavidin chip, HLA-DR10 isolated from Raji cells) [nM]	SMILES	binding to isolated HLA-DR10 (in words) (HLA-DR10 protein)	SHAL uptake in Jurkat's cells [1]	SHAL binding to HLA-DR10 on Lym-1 addition (HLA-DR10 protein; isolated or recombinant HLA-DR10 protein)
~34	CC(=O)NC(CCCNC(=N)N)C(=O)NC(CCCNC(=N)N)C(=O)NC(CCCNC(=N)N)C(=O)NC(CCCNC(=N)N)C(=O)NC(CCCNC(=N)N)C(=O)NC(CCCNC(=N)N)C(=O)NCCCCC(NC(=O)C(CCCCNC(=O)COCCOCCNC(=O)COCCOCCNC(=O)COCCOCCNC(=O)C(CCCCNC(=O)COCCOCCNC(=O)c1ccc(NC(=O)C(CCCNC(=N)N)NC(=O)c2ccccc2)cc1)NC(=O)C(NS(=O)(=O)c1ccc(N=Nc2ccc(N(C)C)cc2)cc1)C(C)C)NC(=O)COCCOCCNC(=O)COCCOCCNC(=O)COCCOCCNC(=O)C(CCCCNC(=O)COCCOCCNC(=O)c1ccc(NC(=O)C(CCCNC(=N)N)NC(=O)c2ccccc2)cc1)NC(=O)C(NS(=O)(=O)c1ccc(N=Nc2ccc(N(C)C)cc2)cc1)C(C)C)C(=O)NC(CCCCNC(=O)CN1CCN(CC(=O)O)CCN(CC(=O)O)CCN(CC(=O)O)CC1)C(=O)O (centres unmarked) [(DvLPBaPPP)2LArg6AcLLDo]	did not interfere with SHAL binding to the protein	minimal SHAL uptake	–
–	CC(C)C(NS(=O)(=O)c1ccc(N=Nc2ccc(N(C)C)cc2)cc1)C(=O)NCCOCCOCC(=O)NC(CCCCNC(=O)C(CCCCNC(=O)CC(=O)Nc1ccccc1Oc1ncc(C(F)(F)F)cc1Cl)NC(=O)COCCOCCNC(=O)c1ccc(N2CCN(Cc3ccc(Cl)cc3)CC2)c([N+](=O)[O-])c1)C(=O)NCCOCCOCC(=O)NC(CCCCNC(=O)CN1CCN(CC(=O)O)CCN(CC(=O)O)CCN(CC(=O)O)CC1)C(=O)O (centres unmarked) [tridentate SHAL]	better than nanomolar	–	blocked by Lym-1 addition
